Consider 14 compounds from PubChem BioAssay (NCI).

Among the test systems are UACC-257 melanoma; MDA-N; HCT-116 colon; HS 578T breast; MDA-MB-231 breast; OVCAR-3 ovarian; OVCAR-4 ovarian; OVCAR-5 ovarian; SNB-19 CNS; SK-OV-3 ovarian.
Common to all, as to assay: inhibition of tumour cell growth, NCI panel, 48 h

Structures are written as SMILES.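 A five-concentration, 48-hour dose response in 96-well plates underlies each endpoint, interpolated linearly between surrounding concentrations. The concentration for full growth arrest is given as TGI.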

For the compound `CCOC(=O)c1nc2ccccc2nc1Nc1ccc(C(=O)OC)s1`, the TGI with UACC-257 melanoma, with MDA-N, with HCT-116 colon, in the assay on HS 578T breast, with MDA-MB-231 breast and in the assay on OVCAR-3 ovarian was above 100 µM throughout. Moreover, the TGI in the assay on OVCAR-4 ovarian, in the assay on OVCAR-5 ovarian and in the assay with SNB-19 CNS was above 100 µM in each case.
For the compound `CCOP(=O)(OCC)C(Nc1ccc(Cl)cc1)c1ccc(F)cc1` (configuration not stated), the TGI in the assay on UACC-257 melanoma was 44 µM; in the assay on MDA-N, 43.1 µM; with HCT-116 colon, 44.5 µM; in the assay on HS 578T breast, 54.4 µM; in the assay with MDA-MB-231 breast, 74.6 µM; with OVCAR-3 ovarian it was above 100 µM. Moreover, the TGI in the assay with OVCAR-4 ovarian, with SK-OV-3 ovarian and with SNB-19 CNS was above 100 µM each time.
With `CCOC(=O)c1sc2nc(SC)nc3c2c1NCN3C`, the TGI was above 100 µM with UACC-257 melanoma; above 100 µM with MDA-N; above 100 µM in the assay on HCT-116 colon; 59.4 µM in the assay on HS 578T breast; 92.5 µM in the assay on MDA-MB-231 breast; above 100 µM in the assay with OVCAR-3 ovarian. In addition, the TGI with OVCAR-4 ovarian is above 100 µM; in the assay with OVCAR-5 ovarian, above 100 µM; with SK-OV-3 ovarian, 38.3 µM; in the assay on SNB-19 CNS, 75.3 µM.
As to `CC1(C)C2CC3C(C)(C2)C31c1cc(Cl)ccc1N` (configuration not stated), the TGI stood at 26.4 µM in the assay with UACC-257 melanoma; 24.7 µM in the assay with MDA-N; 17.5 µM with HCT-116 colon; 30 µM in the assay with MDA-MB-231 breast; 31.2 µM in the assay with OVCAR-3 ovarian; 28.6 µM in the assay on OVCAR-4 ovarian. For the same compound, the values for the TGI with OVCAR-5 ovarian, with SK-OV-3 ovarian and in the assay with SNB-19 CNS were 29.4 µM, 29 µM and 33.5 µM, respectively.
As for `N=C1C=CC(=C(c2ccc(N)cc2)c2ccc(N)cc2)C=C1`, the TGI amounted to 18.1 µM in the assay with UACC-257 melanoma; 30.3 µM with MDA-N; 13.9 µM with HCT-116 colon; 8.18 µM in the assay on HS 578T breast; 32.5 µM with MDA-MB-231 breast; 25.2 µM in the assay on OVCAR-3 ovarian. Moreover, the TGI with OVCAR-4 ovarian stood at 52.4 µM; with OVCAR-5 ovarian it was 50.3 µM; with SK-OV-3 ovarian, 36.2 µM; in the assay on SNB-19 CNS, 18.6 µM.
`O=C(O)C(Cc1ccccc1)Cc1ccccc1`: the TGI in the assay on UACC-257 melanoma, in the assay on MDA-N, in the assay with HCT-116 colon, in the assay on HS 578T breast, with MDA-MB-231 breast and in the assay with OVCAR-3 ovarian was above 100 µM each time. For the same compound, the TGI in the assay on OVCAR-4 ovarian, in the assay on OVCAR-5 ovarian, with SK-OV-3 ovarian and in the assay with SNB-19 CNS was above 100 µM in each case.
As for `O=C(CC(=O)N1N=C(c2ccccc2)C(N=Nc2ccc(S(=O)(=O)CCOS(=O)(=O)O)cc2)C1=O)Nc1ccc(Cl)cc1` (configuration not stated), the TGI in the assay on UACC-257 melanoma is above 100 µM; with MDA-N, above 100 µM; in the assay on HCT-116 colon, above 100 µM; in the assay on HS 578T breast, 99.6 µM; in the assay with MDA-MB-231 breast, above 100 µM; in the assay on OVCAR-3 ovarian it was above 100 µM. Further, the TGI with OVCAR-5 ovarian, with SK-OV-3 ovarian and in the assay on SNB-19 CNS was above 100 µM throughout.
Take `O/N=C1\C/C(=N\O)c2c(Br)sc(Br)c21`: the TGI in the assay with UACC-257 melanoma was above 100 µM; with MDA-N it was above 100 µM; in the assay on HCT-116 colon, above 100 µM; with HS 578T breast it was 30.9 µM; with MDA-MB-231 breast it was above 100 µM; in the assay on OVCAR-3 ovarian, above 100 µM. Further, the TGI in the assay with OVCAR-4 ovarian and with SK-OV-3 ovarian was above 100 µM each time.
As to `O=C(CSc1nc2ccc(I)cc2c(=O)n1Cc1ccccc1)Nc1ccccc1`, the TGI in the assay on MDA-N was above 100 µM; in the assay on HCT-116 colon it was above 100 µM; with HS 578T breast it was 17 µM; with MDA-MB-231 breast, above 100 µM; with OVCAR-3 ovarian it was 40.4 µM; in the assay on OVCAR-4 ovarian, above 100 µM. Further, the results for the TGI in the assay with OVCAR-5 ovarian, in the assay on SK-OV-3 ovarian and in the assay on SNB-19 CNS were above 100 µM, 46.4 µM and 62.7 µM, respectively.
With `OCc1ccc2c(c1)CC1(Cc3ccccc3C1)C2`, the TGI turned out to be 43 µM with UACC-257 melanoma; 20 µM in the assay with MDA-N; 35.5 µM with HCT-116 colon; 32.9 µM with HS 578T breast; 27.4 µM in the assay with MDA-MB-231 breast; 68.5 µM with OVCAR-3 ovarian. The TGI in the assay on OVCAR-4 ovarian was above 100 µM; in the assay on SK-OV-3 ovarian it was 84.8 µM.
With `Cc1nc(N)c(N2CCN(S(=O)(=O)N(Cc3ccccc3)Cc3ccccc3)CC2)c(=O)[nH]1`, the TGI in the assay with UACC-257 melanoma is 61.5 µM; in the assay on MDA-N it was above 100 µM; in the assay with HCT-116 colon, above 100 µM; in the assay with HS 578T breast, 69.8 µM; with MDA-MB-231 breast, above 100 µM; in the assay with OVCAR-3 ovarian, 73.8 µM. Further, the TGI in the assay with OVCAR-4 ovarian came to 93.6 µM; in the assay on OVCAR-5 ovarian it was 73.5 µM; with SNB-19 CNS it was 74.7 µM.
Regarding `C=C(C)C1(Sc2ccc(OC)cc2)CC1`, the TGI was 55.7 µM in the assay on UACC-257 melanoma; above 100 µM with MDA-N; above 100 µM with HCT-116 colon; above 100 µM in the assay on MDA-MB-231 breast; 29.7 µM with OVCAR-3 ovarian; above 100 µM in the assay on OVCAR-4 ovarian. Besides, the TGI in the assay on OVCAR-5 ovarian, in the assay on SK-OV-3 ovarian and in the assay with SNB-19 CNS was above 100 µM in each case.
On to `COCC(C#N)NC1CC(OC2CC(O)(C(=O)CO)Cc3c(O)c4c(c(O)c32)C(=O)c2c(OC)cccc2C4=O)OC(C)C1O` (configuration not stated), for which the TGI with UACC-257 melanoma turned out to be 0.368 µM; with MDA-N, 0.349 µM; in the assay on HS 578T breast it was 1.32 µM; in the assay with MDA-MB-231 breast, 0.729 µM; in the assay on OVCAR-3 ovarian, 3 µM; with OVCAR-4 ovarian, 2.08 µM. For the same compound, the values for the TGI with OVCAR-5 ovarian, in the assay on SK-OV-3 ovarian and with SNB-19 CNS were 2.54 µM, 10.6 µM and 2.61 µM, respectively.
In the case of `CCC[N+](C)(C)CCCNC(=O)c1c(O)c2ccccc2[nH]c1=O`, the TGI in the assay with UACC-257 melanoma, with MDA-N, in the assay with HCT-116 colon, in the assay with HS 578T breast, in the assay with MDA-MB-231 breast and in the assay with OVCAR-3 ovarian was above 100 µM throughout. For the same compound, the TGI in the assay with OVCAR-4 ovarian, with OVCAR-5 ovarian and in the assay with SK-OV-3 ovarian was above 100 µM each time.
